Reference: ChEMBL document CHEMBL3596124, “New anti-trypanosomal active tetracyclic iridoid isolated from Morinda lucida Benth” (Bioorg Med Chem Lett, 2015)

Tests used:
[1] = Selectivity index, ratio of IC50 for human NB1RGB cells to IC50 for Trypanosoma brucei brucei GUTat 3.1 bloodstream forms; format: toxicity, cell-based; settings: read-out: Ratio IC50
[2] = Cytotoxicity against human KATO III cells assessed as reduction in cell viability incubated for 48 hrs by MTT assay; format: functional, cell-based
[3] = Selectivity index, ratio of IC50 for human HL60 cells to IC50 for Trypanosoma brucei brucei GUTat 3.1 bloodstream forms; format: functional, HL-60
[4] = tested on: Trypanosoma brucei brucei; assay: Anti-trypanosomal activity against Trypanosoma brucei brucei GUTat 3.1 bloodstream forms assessed as reduction in parasitemia incubated for 48 hrs by alamar blue assay; format: functional, organism-based; settings: GUTat 3.1, 48 h
[5] = Cytotoxicity against human HF19 cells assessed as reduction in cell viability incubated for 48 hrs by MTT assay; format: cell-based; settings: HF19, 48 h
HCT-15 = assay: Cytotoxicity against human HCT15 cells assessed as reduction in cell viability incubated for 48 hrs by MTT assay; format: functional, cell-based; settings: HCT-15, 48 h
[6] = Selectivity index, ratio of IC50 for human HF19 cells to IC50 for Trypanosoma brucei brucei GUTat 3.1 bloodstream forms; format: toxicity, cell-based; settings: read-out: Ratio IC50
[7] = Selectivity index, ratio of IC50 for human KATO III cells to IC50 for Trypanosoma brucei brucei GUTat 3.1 bloodstream forms; format: functional, KATO III cell
U-937 = assay: Cytotoxicity against human U937 cells assessed as reduction in cell viability incubated for 48 hrs by MTT assay; format: functional, cell-based; settings: U-937, 48 h
[8] = Selectivity index, ratio of IC50 for human U937 cells to IC50 for Trypanosoma brucei brucei GUTat 3.1 bloodstream forms; format: functional, U-937
[9] = Selectivity index, ratio of IC50 for human Jurkat cells to IC50 for Trypanosoma brucei brucei GUTat 3.1 bloodstream forms; format: functional
Jurkat = assay: Cytotoxicity against human Jurkat cells assessed as reduction in cell viability incubated for 48 hrs by MTT assay; format: functional, cell-based
[10] = Selectivity index, ratio of IC50 for human Caco2 cells to IC50 for Trypanosoma brucei brucei GUTat 3.1 bloodstream forms; format: functional, Caco-2
Caco-2 = assay: Cytotoxicity against human Caco2 cells assessed as reduction in cell viability incubated for 48 hrs by MTT assay; format: functional, cell-based; settings: Caco-2, 48 h
[11] = Selectivity index, ratio of IC50 for human HCT15 cells to IC50 for Trypanosoma brucei brucei GUTat 3.1 bloodstream forms; format: functional, HCT-15
LoVo = assay: Cytotoxicity against human LoVo cells assessed as reduction in cell viability incubated for 48 hrs by MTT assay; format: functional, cell-based
[12] = Cytotoxicity against human NB1RGB cells assessed as reduction in cell viability incubated for 48 hrs by MTT assay; format: cell-based
[13] = Selectivity index, ratio of IC50 for human THP1 cells to IC50 for Trypanosoma brucei brucei GUTat 3.1 bloodstream forms; format: functional, THP-1
[14] = Selectivity index, ratio of IC50 for human LoVo cells to IC50 for Trypanosoma brucei brucei GUTat 3.1 bloodstream forms; format: functional
THP-1 = assay: Cytotoxicity against human THP1 cells assessed as reduction in cell viability incubated for 48 hrs by MTT assay; format: functional, cell-based; settings: THP-1, 48 h
HL-60 = assay: Cytotoxicity against human HL60 cells assessed as reduction in cell viability incubated for 48 hrs by MTT assay; format: functional, cell-based; settings: HL-60, 48 h

COC(=O)C1=CO[C@@H]2O[C@H]3/C(=C\c4ccc(O)c(OC)c4)C(=O)O[C@]34C=C[C@H]1[C@H]24
selectivity ratio [1]: 4.73
IC50 [2]: 210 nM
Ratio IC50 [3]: 3.05
IC50 [4]: 1270 nM
IC50 [5]: 12.1 µM
IC50 (HCT-15): 16 µM
selectivity ratio [6]: 9.54
Ratio IC50 [7]: 0.17
IC50 (U-937): 4.08 µM
Ratio IC50 [8]: 3.21
Ratio IC50 [9]: 1.93
IC50 (Jurkat): 2450 nM
Ratio IC50 [10]: 1.06
IC50 (Caco-2): 1350 nM
Ratio IC50 [11]: 12.63
IC50 (LoVo): 110 nM
IC50 [12]: 6.01 µM
Ratio IC50 [13]: 5.5
Ratio IC50 [14]: 0.09
IC50 (THP-1): 6.98 µM
IC50 (HL-60): 3.87 µM
